# Measured values published in patent US10245275B2 (ViiV HEALTHCARE UK (NO.4) LIMITED, priority 2014, dated 2019).
# Like-named read-outs stand apart in the source and are kept apart here.
# Assays:
# [1] = test system: HIV-1 NL4-3 gag A364V virus; test: microbe, parasite or virus in culture; type: cell-based
# Experimental: (§1) MT-2 cells and 293T cells were obtained from the NIH AIDS Research and Reference Reagent Program. MT-2 cells were propagated in RPMI 1640 media supplemented with 10% heat-inactivated fetal bovine serum, […]. The 293T cells were propagated in DMEM media supplemented with 10% heat-inactivated fetal bovine serum (FBS), 100 units/mL penicillin G and 100 μg/mL streptomycin. […] A recombinant NL4-3 virus, in which a section of the nef gene from NL4-3 was replaced with the Renilla luciferase gene, was used as a reference virus. In addition, residue Gag P373 was converted to P373S. […] Transfections were performed in 293T cells using LipofectAMINE PLUS from Invitrogen (Carlsbad, Calif.), according to manufacturer's instruction. The virus was titered in MT-2 cells using luciferase enzyme activity as a marker. Luciferase was quantitated using the Dual Luciferase kit from Promega (Madison, Wis.), with modifications to the manufacturer's protocol. The diluted Passive Lysis solution was pre-mixed with the re-suspended Luciferase Assay Reagent and the re-suspended Stop & Glo Substrate (2:1:1 ratio). Fifty (50) μL of the mixture was added to each aspirated well on assay plates and luciferase activity was measured immediately on a Wallac TriLux (Perkin-Elmer). Antiviral activities of inhibitors toward the recombinant virus were quantified by measuring luciferase activity in cells infected for 4-5 days with NLRluc recombinants in the presence serial dilutions of the inhibitor.
# Both recombinant viruses were used as described above in the HIV cell culture assay for the NL4-3 virus.
# [2] = test system: WT (wild-type HIV virus; recombinant NL4-3 virus); test: microbe, parasite or virus in culture; type: cell-based, HIV-1
# Experimental: as §1
# WT refers to wild-type HIV virus. […]
# [3] = Human immunodeficiency virus 1, NL43, MT2, read-out: A364V (EC50, uM), Table 1 regular screen, class symbol
# [4] = Human immunodeficiency virus 1, NL43, MT2, read-out: WT (EC50, uM), Table 1 regular screen, class symbol
# [5] = Human immunodeficiency virus 1, NL43, MT2, read-out: A364V (EC50, uM), Table 1 regular screen, MT-2 cells, luciferase readout
# [6] = Human immunodeficiency virus 1, NL43, MT2, read-out: WT (EC50, uM), Table 1 regular screen, MT-2 cells, luciferase readout
structure (smiles),measurement,setting,value
"C=C(C)[C@@H]1CC[C@]2(NCC(=O)N3CCS(=O)(=O)CC3)CC[C@]3(C)[C@H](CC[C@@H]4[C@@]5(C)CC=C(C6=CC[C@](CF)(C(=O)O)CC6)C(C)(C)[C@@H]5CC[C@]43C)[C@@H]12 [Example 29, (S)-4-((1R,3aS,5aR,5bR,7aR,11aS,11bR,13aR,13bR)-3a-((2-(1,1-dioxidothiomorpholino)-2-oxoethyl)amino)-5a,5b,8,8,11a-pentamethyl-1-(prop-1-en-2-yl)-2,3,3a,4,5,5a,5b,6,7,7a,8,11,11a,11b,12,13,13a,13b-octadecahydro-1H-cyclopenta[a]chrysen-9-yl)-1-(fluoromethyl)cyclohex-3-enecarboxylic acid]",EC50,[1]; [3],> 0.05 µM
same,EC50,[2]; [4],< 0.05 µM
"C=C(C)[C@@H]1CC[C@]2(NCCN3CCOC3=O)CC[C@]3(C)[C@H](CC[C@@H]4[C@@]5(C)CC=C(C6=CC[C@](CF)(C(=O)O)CC6)C(C)(C)[C@@H]5CC[C@]43C)[C@@H]12 [Example 2-24, (S)-1-(fluoromethyl)-4-((1R,3aS,5aR,5bR,7aR,11aS,11bR,13aR,13bR)-5a,5b,8,8,11a-pentamethyl-3a-((2-(2-oxooxazolidin-3-yl)ethyl)amino)-1-(prop-1-en-2-yl)-2,3,3a,4,5,5a,5b,6,7,7a,8,11,11a,11b,12,13,13a,13b-octadecahydro-1H-cyclopenta[a]chrysen-9-yl)cyclohex-3-enecarboxylic acid]",EC50,[1]; [5],0.932 µM
same,EC50,[2]; [6],0.0053 µM
"C=C(C)[C@@H]1CC[C@]2(NCCC3(O)CCOCC3)CC[C@]3(C)[C@H](CC[C@@H]4[C@@]5(C)CC=C(C6=CC[C@](CF)(C(=O)O)CC6)C(C)(C)[C@@H]5CC[C@]43C)[C@@H]12 [Example 2-12, (S)-1-(fluoromethyl)-4-((1R,3aS,5aR,5bR,7aR,11aS,11bR,13aR,13bR)-3a-((2-(4-hydroxytetrahydro-2H-pyran-4-yl)ethyl)amino)-5a,5b, 8,8,11a-pentamethyl-1-(prop-1-en-2-yl)-2,3,3a,4,5,5a,5b,6,7,7a,8,11,11a,11b,12,13,13a,13b-octadecahydro-1H-cyclopenta[a]chrysen-9-yl)cyclohex-3-enecarboxylic acid]",EC50,[1]; [5],0.348 µM
same,EC50,[2]; [6],0.00201 µM
"C=C(C)[C@@H]1CC[C@]2(NCCS(=O)(=O)CCN3CCS(=O)(=O)CC3)CC[C@]3(C)[C@H](CC[C@@H]4[C@@]5(C)CC=C(C6=CC[C@](CF)(C(=O)O)CC6)C(C)(C)[C@@H]5CC[C@]43C)[C@@H]12 [Example 43, (S)-4-((1R,3aS,5aR,5bR,7aR,11aS,11bR,13aR,13bR)-3a-((2-((2-(1,1-dioxidothiomorpholino)ethyl)sulfonyl)ethyl)amino)-5a,5b,8,8,11a-pentamethyl-1-(prop-1-en-2-yl)-2,3,3a,4,5,5a,5b,6,7,7a,8,11,11a,11b,12,13,13a,13b-octadecahydro-1H-cyclopenta[a]chrysen-9-yl)-1-(fluoromethyl)cyclohex-3-enecarboxylic acid]",EC50,[1]; [5],0.585 µM
same,EC50,[2]; [6],0.00335 µM
"C=C(C)[C@@H]1CC[C@]2(NCCN3CCS(=O)(=O)CC3C(=O)OCC)CC[C@]3(C)[C@H](CC[C@@H]4[C@@]5(C)CC=C(C6=CC[C@@](CF)(C(=O)O)CC6)C(C)(C)[C@@H]5CC[C@]43C)[C@@H]12 (single isomer, unassigned) [Example 14]",EC50,[1]; [3],< 0.05 µM
same,EC50,[2]; [4],< 0.05 µM
"C=C(C)[C@@H]1CC[C@]2(NCCC3CCS(=O)(=O)CC3)CC[C@]3(C)[C@H](CC[C@@H]4[C@@]5(C)CC=C(C6=CC[C@](CF)(C(=O)O)CC6)C(C)(C)[C@@H]5CC[C@]43C)[C@@H]12 [Example 7, (S)-4-((1R,3aS,5aR,5bR,7aR,11aS,11bR,13aR,13bR)-3a-((2-(1,1-dioxidotetrahydro-2H-thiopyran-4-yl)ethyl)amino)-5a,5b,8,8,11a-pentamethyl-1-(prop-1-en-2-yl)-2,3,3a,4,5,5a,5b,6,7,7a,8,11,11a,11b,12,13,13a,13b-octadecahydro-1H-cyclopenta[a]chrysen-9-yl)-1-(fluoromethyl)cyclohex-3-enecarboxylic acid]",EC50,[1]; [3],> 0.05 µM
same,EC50,[2]; [4],< 0.05 µM
"C=C(C)[C@@H]1CC[C@]2(NCCN3CCC(C)(O)CC3)CC[C@]3(C)[C@H](CC[C@@H]4[C@@]5(C)CC=C(C6=CC[C@](CF)(C(=O)O)CC6)C(C)(C)[C@@H]5CC[C@]43C)[C@@H]12 [Example 2-23, (S)-1-(fluoromethyl)-4-((1R,3aS,5aR,5bR,7aR,11aS,11bR,13aR,13bR)-3a-((2-(4-hydroxy-4-methylpiperidin-1-yl)ethyl)amino)-5a,5b,8,8,11a-pentamethyl-1-(prop-1-en-2-yl)-2,3,3a,4,5,5a,5b,6,7,7a,8,11,11a,11b,12,13,13a,13b-octadecahydro-1H-cyclopenta[a]chrysen-9-yl)cyclohex-3-enecarboxylic acid]",EC50,[1]; [5],0.0597 µM
same,EC50,[2]; [6],0.00121 µM
"C=C(C)[C@@H]1CC[C@]2(NCCN3CCN(C(C)=O)C(C)(C)C3=O)CC[C@]3(C)[C@H](CC[C@@H]4[C@@]5(C)CC=C(C6=CC[C@](CF)(C(=O)O)CC6)C(C)(C)[C@@H]5CC[C@]43C)[C@@H]12 [Example 2-27, (S)-4-((1R,3aS,5aR,5bR,7aR,11aS,11bR,13aR,13bR)-3a-((2-(4-acetyl-3,3-dimethyl-2-oxopiperazin-1-yl)ethyl)amino)-5a,5b, 8,8,11a-pentamethyl-1-(prop-1-en-2-yl)-2,3,3a,4,5,5a,5b,6,7,7a,8,11,11a,11b,12,13,13a,13b-octadecahydro-1H-cyclopenta[a]chrysen-9-yl)-1-(fluoromethyl)cyclohex-3-enecarboxylic acid]",EC50,[1]; [5],0.0201 µM
same,EC50,[2]; [6],0.00577 µM
"C=C(C)[C@@H]1CC[C@]2(NCCN3CCC(C(=O)OCC)(C(=O)OCC)CC3)CC[C@]3(C)[C@H](CC[C@@H]4[C@@]5(C)CC=C(C6=CC[C@@](CF)(C(=O)O)CC6)C(C)(C)[C@@H]5CC[C@]43C)[C@@H]12 [Example 13, (R)-4-((1R,3aS,5aR,5bR,7aR,11aS,11bR,13aR,13bR)-3a-((2-(4,4-bis(ethoxycarbonyl)piperidin-1-yl)ethyl)amino)-5a,5b, 8,8,11a-pentamethyl-1-(prop-1-en-2-yl)-2,3,3a,4,5,5a,5b,6,7,7a,8,11,11a,11b,12,13,13a,13b-octadecahydro-1H-cyclopenta[a]chrysen-9-yl)-1-(fluoromethyl)cyclohex-3-enecarboxylic acid]",EC50,[1]; [5],0.196 µM
same,EC50,[2]; [6],0.0188 µM
"C=C(C)[C@@H]1CC[C@]2(NCCN3CCN(C)C3=O)CC[C@]3(C)[C@H](CC[C@@H]4[C@@]5(C)CC=C(C6=CC[C@](CF)(C(=O)O)CC6)C(C)(C)[C@@H]5CC[C@]43C)[C@@H]12 [Example 2-26, (S)-1-(fluoromethyl)-4-((1R,3aS,5aR,5bR,7aR,11aS,11bR,13aR,13bR)-5a,5b,8,8,11a-pentamethyl-3a-((2-(3-methyl-2-oxoimidazolidin-1-yl)ethyl)amino)-1-(prop-1-en-2-yl)-2,3,3a,4,5,5a,5b,6,7,7a,8,11,11a,11b,12,13,13a,13b-octadecahydro-1H-cyclopenta[a]chrysen-9-yl)cyclohex-3-enecarboxylic acid]",EC50,[1]; [3],> 0.05 µM
same,EC50,[2]; [4],< 0.05 µM
"C=C(C)[C@@H]1CC[C@]2(NCC(O)CN3CCS(=O)(=O)CC3)CC[C@]3(C)[C@H](CC[C@@H]4[C@@]5(C)CC=C(C6=CC[C@](CF)(C(=O)O)CC6)C(C)(C)[C@@H]5CC[C@]43C)[C@@H]12 (stereo partly drawn) [Example 2-8, (1S)-4-((1R,3aS,5aR,5bR,7aR,11aS,11bR,13aR,13bR)-3a-((3-(1,1-dioxidothiomorpholino)-2-hydroxypropyl)amino)-5a,5b, 8,8,11a-pentamethyl-1-(prop-1-en-2-yl)-2,3,3a,4,5,5a,5b,6,7,7a,8,11,11a,11b,12,13,13a,13b-octadecahydro-1H-cyclopenta[a]chrysen-9-yl)-1-(fluoromethyl)cyclohex-3-enecarboxylic acid]",EC50,[1]; [5],1.91 µM
same,EC50,[2]; [6],0.00233 µM
"C=C(C)[C@@H]1CC[C@]2(NCC(=O)N3CCCS(=O)(=O)CC3)CC[C@]3(C)[C@H](CC[C@@H]4[C@@]5(C)CC=C(C6=CC[C@](CF)(C(=O)O)CC6)C(C)(C)[C@@H]5CC[C@]43C)[C@@H]12 [Example 34, (S)-4-((1R,3aS,5aR,5bR,7aR,11aS,11bR,13aR,13bR)-3a-((2-(1,1-dioxido-1,4-thiazepan-4-yl)-2-oxoethyl)amino)-5a,5b, 8,8,11a-pentamethyl-1-(prop-1-en-2-yl)-2,3,3a,4,5,5a,5b,6,7,7a,8,11,11a,11b,12,13,13a,13b-octadecahydro-1H-cyclopenta[a]chrysen-9-yl)-1-(fluoromethyl)cyclohex-3-enecarboxylic acid]",EC50,[1]; [3],< 0.05 µM
same,EC50,[2]; [4],< 0.05 µM
